Results from article PMC7143969, “Simultaneous Determination of α-Glucosidase Inhibitory Triterpenoids in Psidium guajava Using HPLC–DAD–ELSD and Pressurized Liquid Extraction” (Molecules, 2020).
Values after ≈ are worked out from the molar mass of the structure shown.

Biological target: α-glucosidase (Saccharomyces cerevisiae, UniProt P53341)
Assay: Inhibition assay of α-glucosidase activity (p-nitrophenyl α-D-glucopyranoside substrate, absorbance at 405 nm)
Format: biochemical
Settings: Mean ± SE, phosphate buffer pH 6.8, 37 °C, 30 min, NI: No Inhibition
Experimental: Methanol and formic acid (HPLC grade) were purchased from Merck (Darmstadt, Germany). The ultra-pure water was purified using a Millipore Milli Q-Plus system (Millipore, Bedford, MA, USA). The α-glucosidase and p-nitrophenyl α-D-glucopyranoside were purchased from Sigma (St. Louis, USA). The enzymatic reaction results were detected on a SpectraMax M5 (Molecular Devices, San Jose, CA, USA).
The inhibition assay of α-glucosidase was measured by the method as described previously. Briefly, a total volume of 150 µL solution consisting of 100 µL phosphate buffer (0.1 M, pH 6.8), 20 µL α-glucosidase (2.4 unit/mg), 20 µL p-nitrophenyl α-D-glucopyranoside and 10 µL different concentration of test sample (12.5–500 µg/mL), was incubated for 30 min under the temperature of 37 °C, then the reaction was stopped by adding 80 µL 0.1 mM Na2CO3. The results were detected under the wavelength of 405 nm on a SpectraMax M5 (Molecular Devices, San Jose, CA, USA). The controlled sample used solvent instead of triterpenoids and the blank sample used buffer instead of α-glucosidase, respectively. The inhibition activity α-glucosidase was calculated by the following equation:Inhibition (%) = [1 − (As − Asb)/(Ac − Acb)] × 100%(2)
Herein, As, Asb, Ac and Acb are absorption of the test sample, sample blank, control and control blank, respectively. Their half maximal inhibitory concentration (IC50) were calculated and compared.

α-glucosidase, sequence (P53341 whole entry): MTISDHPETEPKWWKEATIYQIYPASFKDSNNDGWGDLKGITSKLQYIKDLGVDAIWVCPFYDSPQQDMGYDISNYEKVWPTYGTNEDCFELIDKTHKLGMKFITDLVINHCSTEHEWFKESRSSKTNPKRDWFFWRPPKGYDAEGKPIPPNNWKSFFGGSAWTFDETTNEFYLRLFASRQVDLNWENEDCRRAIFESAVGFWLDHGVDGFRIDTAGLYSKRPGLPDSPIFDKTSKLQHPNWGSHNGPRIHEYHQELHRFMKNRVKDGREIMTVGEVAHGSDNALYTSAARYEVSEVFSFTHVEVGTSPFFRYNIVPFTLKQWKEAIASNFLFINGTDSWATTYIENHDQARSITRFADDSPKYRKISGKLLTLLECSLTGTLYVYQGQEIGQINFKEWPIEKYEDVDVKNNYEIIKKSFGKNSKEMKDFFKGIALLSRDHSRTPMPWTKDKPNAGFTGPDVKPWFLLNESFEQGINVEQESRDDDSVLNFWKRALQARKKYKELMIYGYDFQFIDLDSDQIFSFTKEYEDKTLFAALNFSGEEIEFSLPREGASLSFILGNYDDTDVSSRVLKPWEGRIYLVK

SMILES	IC50 (n = 3) against α-Glucosidase
C[C@H]1[C@H](C)CC[C@]2(C(=O)O)CC[C@]3(C)C(=CC[C@@H]4[C@@]5(C)C[C@@H](O)[C@H](O)[C@@](C)(CO)[C@@H]5CC[C@]43C)[C@H]12 [Compound 1, asiatic acid]	no inhibition activity
C[C@H]1[C@H](C)CC[C@]2(C(=O)O)CC[C@]3(C)C(=CC[C@@H]4[C@@]5(C)C[C@@H](O)[C@H](OC(=O)/C=C\c6ccc(O)cc6)C(C)(C)[C@@H]5CC[C@]43C)[C@H]12 (relative stereo) [Compound 5, 3β-O-cis-p-coumaroyl-2α-hydroxy-urs-12-en-28-oic acid]	1.54 ± 0.15 µg/mL (≈ 2.49 µM)
C[C@H]1[C@H](C)CC[C@]2(C(=O)O)CC[C@]3(C)C(=CCC4[C@@]5(C)C[C@@H](O)[C@H](OC(=O)/C=C/c6ccc(O)cc6)C(C)(C)C5CC[C@]43C)[C@H]12 (relative stereo) [Compound 7, 3β-O-trans-p-coumaroyl-2α-hydroxy-urs-12-en-28-oic acid]	2.12 ± 0.15 µg/mL (≈ 3.43 µM)

Results, then the compound that gave them:

IC50 (n = 3) against α-Glucosidase	SMILES
1.93 ± 0.14 µg/mL (≈ 3.12 µM)	CC1(C)CCC2(C(=O)O)CCC3(C)C(=CCC4C5(C)CC(O)C(OC(=O)C=Cc6ccc(O)cc6)C(C)(C)C5CCC43C)C2C1 (stereo not drawn) [Compound 6, 3β-O-trans-p-coumaroyl-2α-hydroxy-olean-12-en-28-oic acid]
2.25 ± 0.28 µg/mL (≈ 3.64 µM)	CC1(C)CCC2(C(=O)O)CCC3(C)C(=CCC4C5(C)CC(O)C(OC(=O)C=Cc6ccc(O)cc6)C(C)(C)C5CCC43C)C2C1 (stereo not drawn) [Compound 4, 3β-O-cis-p-coumaroyl-2α-hydroxy-olean-12-en-28-oic acid]
